In general, IC50 refers to the midpoint of a concentration-inhibition curve.

Experiment [1] has as its system B-16 melanoma cells implanted in mice. As to the kind of experiment: Animal test of growth inhibition of implanted B-16 melanoma in mice. It is filed as in vivo. Conditions: tumor weight vs control at day 14; for inhibition in vivo at 100 mg: Mus musculus, B16, read-out: Tumor inhibiting efficiency, female BDF1-JCR mice, 1 x 10^5 B-16 cells subcutaneously; for Tumor inhibiting efficiency: female BDF1-JCR mice. The procedure:
Animal tests were conducted to examine the activity of several compounds including 2-(2-aminoethylthio)ethyl trimethyl silane in the inhibiting power against the growth of the B-16 melanoma cells implanted in mice as the test animals.
Thus each of 12 female mice of the BDF1-JCR lineage was implanted subcutaneously with 1 x 10^5 cells of the B-16 black tumor.
Six of the thus treated mice were bred as such as a control group and the other six mice as the test group were orally administrated once a day with 100 mg of the test compound for 5 days beginning with the second day of the implantation.
The results of the tests were expressed by the tumor inhibiting efficiency in % calculated by the following equation, in which W^1 is the averaged tumor weight per mouse in the control group and W^2 is the averaged tumor weight per mouse in the test group. [formula]
For comparison, similar animal tests were undertaken with FT-207 as a derivative of 5-fluorouracil with the dose amount at one time increased to 130 mg.

Another experiment deals with B-16 melanoma cells. As to the kind of experiment: In vitro tissue culture test of tumor cell growth inhibition. It is filed as cell-based. Conditions: Mus musculus, B16, Eagle's medium with 10 % calf blood plasma, 37 °C, compound added after 24 hours, three further days. The procedure:
(§1) An in vitro test by tissue culture was undertaken for the activity of 2-(2-aminoethylthio)ethyl trimethyl silane against the growth of three kinds of tumor cells. The tumor cells used in the test were Ehrlich's cancer cells, Lewis lung cancer cells and B-16 melanoma cells and each kind of the above tumor cells was cultured in several Eagle's nutrient media admixed with 10 % of calf blood plasma at 37 °C.
(§2) After 24 hours from the start of the culture, 2-(2-amino- ethylthio)ethyl trimethyl silane was added to each of the nutrient media in a different concentration and, after additional three days at the same temperature, the conentration IC50 was determined with which the multiplication of the tumor cells was inhibited in 50 % of the tested groups. The results were as shown below

The subject of another experiment is Ehrlich's cancer cells. Described as above. It is filed as cell-based. The following applies: Eagle's medium with 10 % calf blood plasma, 37 °C, compound added after 24 hours, three further days. The procedure: as §1, §2
A further experiment deals with Lewis lung cancer cells. The description is as above. The class given is cell-based. The following applies: Lewis lung carcinoma, Eagle's medium with 10 % calf blood plasma, 37 °C, compound added after 24 hours, three further days. On the procedure:
as §1, §2

Setting [2] is: oral, 100 mg once a day for 5 days from second day.
The mark [3] stands for this setting: 1 x 10^5 B-16 cells subcutaneously, oral, 100 mg once a day for 5 days from second day.

Converted amounts (≈) assume the structure as drawn. Where a name gives a salt, the structure may show the parent alone.

As for `CCN(CC)CSCC[Si](CC)(CC)CC` [Et3Si-(-CH2)2-S-CH2-NEt2], the inhibition in vivo at 100 mg in experiment [1] (setting [2]) is 90.5%.

On to `C[Si](C)(CCSCCN)c1ccccc1` [Ph·Me2Si-(-CH2-)2-S-(-CH2-)2-NH2, 2-(2-aminoethylthio)ethyl phenyl dimethyl silane], for which the inhibition in vivo at 100 mg in experiment [1] (setting [2]) worked out at 82.6%.

In the case of `CC[Si](CC)(CC)CCSCCN` [Et3Si-(-CH2-)2-S-(-CH2-)2-NH2, 2-(2-aminoethylthio)ethyl triethyl silane], the inhibition in vivo at 100 mg in experiment [1] (setting [2]) amounted to 90.8%.

As for `C[Si](C)(C)CCCSCCN` [Me3Si-(-CH2-)3-S-(-CH2-)2-NH2, 3-(2-aminoethylthio)propyl trimethyl silane], the inhibition in vivo at 100 mg in experiment [1] (setting [2]) came to 93.9%.

For the molecule `CCN(CC)CSCCC[Si](C)(C)C` [Me3Si-(-CH2-)3-S-CH2-NEt2], in experiment [1] (setting [2]), the inhibition in vivo at 100 mg was found to be 83.9%.

`O=c1[nH]c(=O)n(C2CCCO2)cc1F` (stereo not drawn) [FT-207, reference compound] displayed a Tumor inhibiting efficiency in experiment [1] (comparison, B-16 cells subcutaneously, dose at one time 130 mg) of 20.5%.

For the molecule `C[Si](C)(C)CCSCCN` [Me3Si-(-CH2-)2-S-(-CH2-)2-NH2, 2-(2-aminoethylthio)ethyl trimethyl silane], the IC50 with B-16 melanoma cells turned out to be 18 µg/mL (≈ 101 µM); with Ehrlich's cancer cells it was 12 µg/mL (≈ 67.6 µM); in the experiment on Lewis lung cancer cells, 14 µg/mL (≈ 78.9 µM). For the same molecule, in experiment [1] (setting [2]), the inhibition in vivo at 100 mg was determined as 95.6%.

For `C[Si](C)(CCSCCN)CCC(F)(F)F` [(CF3CH2CH2)Me2Si-(CH2-)2-S-(-CH2-)2-NH2, 2-(2-aminoethylthio)-ethyl 3,3,3-trifluoropropyl dimethyl silane], in experiment [1] (setting [2]), the inhibition in vivo at 100 mg amounted to 96.8%.

For the molecule `C=C[Si](C)(C)CCSCCN` [Vi·Me2Si-(-CH2-)2-S-(-CH2-)2-NH2, 2-(2-aminoethylthio) ethyl vinyl dimethyl silane], the inhibition in vivo at 100 mg in experiment [1] (setting [2]) is 95.7%.

As for `CCN(CC)CSC[Si](CC)(CC)CC` [Et3Si-CH2-S-CH2-NEt2], in experiment [1] (setting [2]), the inhibition in vivo at 100 mg is 81.7%.

For `CCN(CC)CSC[Si](C)(CC)CC` [Me·Et2Si-CH2-S-CH2-NEt2], the inhibition in vivo at 100 mg in experiment [1] (setting [2]) came out at 86.5%.

On to `CCN(CC)CSCC[Si](C)(CC)CC` [Me·Et2Si-(-CH2-)2-S-CH2-NEt2], for which the inhibition in vivo at 100 mg in experiment [1] (setting [2]) was 86.9%.

Consider `CCN(CC)CSCCC[Si](CC)(CC)CC` [Et3Si-(-CH2-)3-S-CH2-NEt2], for which the inhibition in vivo at 100 mg in experiment [1] (setting [2]) came out at 84.4%.

For `CC[Si](CC)(CC)CSCCN` [Et3Si-CH2-S-(-CH2-)2-NH2, (2-aminoethylthio)methyl triethyl silane], the inhibition in vivo at 100 mg in experiment [1] (setting [2]) turned out to be 91.1%.

`CCN(CC)CSCC[Si](C)(C)C` [Me3Si-(-CH2-)2-S-CH2-NEt2]: the inhibition in vivo at 100 mg in experiment [1] (setting [2]) worked out at 89.2%.

`C[Si](C)(C)CCSCCN` [Me3Si-(-CH2-)2-S-(-CH2-)2-NH2·HCl, hydrochloride of 2-(2-aminoethylthio)ethyl trimethyl silane] yielded a Tumor inhibiting efficiency in experiment [1] (setting [3]) of 97.9%.

For the molecule `CCN(CC)CCSCCC[Si](CC)(CC)CC` [Et3Si-(-CH2-)3-S-(-CH2-)2-NEt2], the inhibition in vivo at 100 mg in experiment [1] (setting [2]) worked out at 76.7%.

As to `C[Si](C)(C)CCSCCN` [Me3Si-(-CH2-)2-S-(-CH2-)2-NH2·CH3COOH], the Tumor inhibiting efficiency in experiment [1] (setting [3]) is 95.0%.
